Columns and labels:
Carboplatin = compound: C1CC(C1)(C(=O)[O-])C(=O)[O-].N.N.[Pt+2] [Carboplatin]; conditions: max 10 µM
Method in brief: (§1)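 In 1536-well plates, cancer cell lines in 7.5 μl DMEM/F12 or RPMI with 10% FBS spent 24 hours at 37°C and 5% CO2 and were then dosed for 72 hours with final DMSO typically 0.2%. Viability was read by CellTiter-Glo 2.0 luminescence and scaled between blank-well and DMSO-well means. The single-agent IC50 was fitted from dose responses using a logistic curve in a non-linear mixed effects model, and that logistic curve had two parameters.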

AZD5363 = compound: C1CN(CCC1(C(=O)N[C@@H](CCO)C2=CC=C(C=C2)Cl)N)C3=NC=NC4=C3C=CN4 [AZD5363]; conditions: max 10 µM
Method in brief: as §1

AZD1775 = compound: C=CCn1c(=O)c2cnc(Nc3ccc(N4CCN(C)CC4)cc3)nc2n1-c1cccc(C(C)(C)O)n1 [AZD1775]
Method in brief: as §1

Trametinib = compound: CC(=O)Nc1cccc(-n2c(=O)n(C3CC3)c(=O)c3c(Nc4ccc(I)cc4F)n(C)c(=O)c(C)c32)c1 [Trametinib]; conditions: max 1 µM
Method in brief: as §1

Paclitaxel = compound: CC(=O)O[C@H]1C(=O)[C@@]2(C)[C@H]([C@H](OC(=O)c3ccccc3)[C@]3(O)C[C@H](OC(=O)[C@H](O)[C@@H](NC(=O)c4ccccc4)c4ccccc4)C(C)=C1C3(C)C)[C@]1(OC(C)=O)CO[C@@H]1C[C@@H]2O [Paclitaxel]; conditions: max 3 µM
Method in brief: as §1

Palbociclib = compound: CC(=O)c1c(C)c2cnc(Nc3ccc(N4CCNCC4)cn3)nc2n(C2CCCC2)c1=O [Palbociclib]; conditions: max 10 µM
Method in brief: as §1

AZD1390 = compound: CC(C)n1c(=O)n(C)c2cnc3cc(F)c(-c4ccc(OCCCN5CCCCC5)nc4)cc3c21 [AZD1390]; conditions: max 0.3 µM
Method in brief: as §1

Venetoclax = compound: CC1(C)CCC(CN2CCN(c3ccc(C(=O)NS(=O)(=O)c4ccc(NCC5CCOCC5)c([N+](=O)[O-])c4)c(Oc4cnc5[nH]ccc5c4)c3)CC2)=C(c2ccc(Cl)cc2)C1 [Venetoclax]; conditions: max 1 µM
Method in brief: as §1

Dasatinib = compound: CC1=C(C(=CC=C1)Cl)NC(=O)C2=CN=C(S2)NC3=CC(=NC(=N3)C)N4CCN(CC4)CCO [Dasatinib]; conditions: max 2 µM
Method in brief: as §1

SG3199 = compound: CC1=CN2[C@@H](C1)C=NC3=CC(=C(C=C3C2=O)OC)OCCCCCOC4=C(C=C5C(=C4)N=C[C@@H]6CC(=CN6C5=O)C)OC [SG3199]; conditions: max 0.001 µM
Method in brief: as §1

AZD2811 = compound: CCN(CCO)CCCOc1ccc2c(Nc3cc(CC(=O)Nc4cccc(F)c4)[nH]n3)ncnc2c1 [AZD2811]; conditions: max 1 µM
Method in brief: as §1

SN-38 = compound: CCc1c2c(nc3ccc(O)cc13)-c1cc3c(c(=O)n1C2)COC(=O)[C@]3(O)CC [SN-38]; conditions: max 0.3 µM
Method in brief: as §1

AZD0156 = compound: CN(C)CCCOc1ccc(-c2ccc3ncc4c(c3c2)n(C2CCOCC2)c(=O)n4C)cn1 [AZD0156]
Method in brief: as §1

AZD4320 = compound: CN(CC[C@H](CSC1=CC=CC=C1)NC2=C(C=C(C=C2)S(=O)(=O)NC(=O)C3=CC=C(C=C3)N4CCC(CC4)[C@H](C5=CC=CC=C5C6=CC=C(C=C6)Cl)O)S(=O)(=O)C(F)(F)F)CCO [AZD4320]; conditions: max 1 µM
Method in brief: as §1

Alisertib = compound: COc1cc(Nc2ncc3c(n2)-c2ccc(Cl)cc2C(c2c(F)cccc2OC)=NC3)ccc1C(=O)O [Alisertib]; conditions: max 10 µM
Method in brief: as §1

Etoposide = compound: COc1cc([C@@H]2c3cc4c(cc3[C@@H](O[C@@H]3O[C@@H]5CO[C@@H](C)O[C@H]5[C@H](O)[C@H]3O)[C@H]3COC(=O)[C@H]23)OCO4)cc(OC)c1O [Etoposide]; conditions: max 10 µM
Method in brief: as §1

Gefitinib = compound: COc1cc2ncnc(Nc3ccc(F)c(Cl)c3)c2cc1OCCCN1CCOCC1 [Gefitinib]; conditions: max 10 µM
Method in brief: as §1

Prexasertib = compound: COc1cccc(OCCCN)c1-c1cc(Nc2cnc(C#N)cn2)n[nH]1 [Prexasertib]; conditions: max 1 µM
Method in brief: as §1

Doxorubicin = compound: COc1cccc2c1C(=O)c1c(O)c3c(c(O)c1C2=O)C[C@@](O)(C(=O)CO)C[C@@H]3O[C@H]1C[C@H](N)[C@H](O)[C@H](C)O1 [Doxorubicin]; conditions: max 1 µM
Method in brief: as §1

AZD5153 = compound: COc1nnc2ccc(N3CCC(c4ccc(OCCN5CCN(C)C(=O)[C@H]5C)cc4)CC3)nn12 [AZD5153]; conditions: max 1 µM
Method in brief: as §1

Lapatinib = compound: CS(=O)(=O)CCNCc1ccc(-c2ccc3ncnc(Nc4ccc(OCc5cccc(F)c5)c(Cl)c4)c3c2)o1 [Lapatinib]; conditions: max 10 µM
Method in brief: as §1

AZD8186 = compound: C[C@@H](Nc1cc(F)cc(F)c1)c1cc(C(=O)N(C)C)cc2c(=O)cc(N3CCOCC3)oc12 [AZD8186]; conditions: max 10 µM
Method in brief: as §1

Crizotinib = compound: C[C@@H](Oc1cc(-c2cnn(C3CCNCC3)c2)cnc1N)c1c(Cl)ccc(F)c1Cl [Crizotinib]; conditions: max 10 µM
Method in brief: as §1

Savolitinib = compound: C[C@@H](c1ccc2nccn2c1)n1nnc2ncc(-c3cnn(C)c3)nc21 [Savolitinib]; conditions: max 1 µM
Method in brief: as §1

AZD6738 = compound: C[C@@H]1COCCN1C2=NC(=NC(=C2)C3(CC3)[S@](=N)(=O)C)C4=C5C=CNC5=NC=C4 [AZD6738]; conditions: max 10 µM
Method in brief: as §1

AZD5991 = compound: Cc1c2c(nn1C)CSCc1cc(n(C)n1)CSc1cc(c3ccccc3c1)OCCCc1c(C(=O)O)n(C)c3c-2c(Cl)ccc13 [AZD5991]; conditions: max 1 µM
Method in brief: as §1

AZD7648 = compound: Cc1cc2ncnn2cc1Nc1ncc2c(n1)n(C1CCOCC1)c(=O)n2C [AZD7648]; conditions: max 10 µM
Method in brief: as §1

Taselisib = compound: Cc1nc(-c2cn3c(n2)-c2ccc(-c4cnn(C(C)(C)C(N)=O)c4)cc2OCC3)n(C(C)C)n1 [Taselisib]; conditions: max 10 µM
Method in brief: as §1

Selumetinib = compound: Cn1cnc2c(F)c(Nc3ccc(Br)cc3Cl)c(C(=O)NOCCO)cc21 [Selumetinib]; conditions: max 10 µM
Method in brief: as §1

SRA737 = compound: N#Cc1cnc(Nc2cc(NC[C@H]3CNCCO3)c(C(F)(F)F)cn2)cn1 [SRA737]; conditions: max 10 µM
Method in brief: as §1

MK-2206 = compound: NC1(c2ccc(-c3nc4ccn5c(=O)[nH]nc5c4cc3-c3ccccc3)cc2)CCC1 [MK-2206]; conditions: max 10 µM
Method in brief: as §1

Gemcitabine = compound: Nc1ccn([C@@H]2O[C@H](CO)[C@@H](O)C2(F)F)c(=O)n1 [Gemcitabine]; conditions: max 0.3 µM
Method in brief: as §1

[1] = compound: O=C(Nc1ccc2[nH]nc(-c3ccncc3)c2c1)[C@@H]1CCN(CC(=O)N2CCN(c3ccc(-c4ncccn4)cc3)CC2)C1; conditions: max 5 µM
Method in brief: as §1

Olaparib = compound: O=C(c1cc(Cc2n[nH]c(=O)c3ccccc23)ccc1F)N1CCN(C(=O)C2CC2)CC1 [Olaparib]; conditions: max 10 µM
Method in brief: as §1

5-Fluorouracil = compound: O=c1[nH]cc(F)c(=O)[nH]1 [5-Fluorouracil]; conditions: max 20 µM
Method in brief: as §1

Cell Line	IC50, cell viability 72 h (Carboplatin) [nM]	IC50, cell viability 72 h (AZD5363) [nM]	IC50, cell viability 72 h (AZD1775; max 1 µM) [nM]	IC50, cell viability 72 h (Trametinib) [nM]	IC50, cell viability 72 h (Paclitaxel) [nM]	IC50, cell viability 72 h (Palbociclib) [nM]	IC50, cell viability 72 h (AZD1390) [nM]	IC50, cell viability 72 h (Venetoclax) [nM]	IC50, cell viability 72 h (Dasatinib) [nM]	IC50, cell viability 72 h (SG3199) [nM]	IC50, cell viability 72 h (AZD2811) [nM]	IC50, cell viability 72 h (SN-38) [nM]	IC50, cell viability 72 h (AZD0156; max 1 µM) [nM]	IC50, cell viability 72 h (AZD4320) [nM]	IC50, cell viability 72 h (Alisertib) [nM]	IC50, cell viability 72 h (Etoposide) [nM]	IC50, cell viability 72 h (Gefitinib) [nM]	IC50, cell viability 72 h (Prexasertib) [nM]	IC50, cell viability 72 h (Doxorubicin) [nM]	IC50, cell viability 72 h (AZD5153) [nM]	IC50, cell viability 72 h (Lapatinib) [nM]	IC50, cell viability 72 h (AZD8186) [nM]	IC50, cell viability 72 h (Crizotinib) [nM]	IC50, cell viability 72 h (Savolitinib) [nM]	IC50, cell viability 72 h (AZD6738) [nM]	IC50, cell viability 72 h (AZD5991) [nM]	IC50, cell viability 72 h (AZD7648) [nM]	IC50, cell viability 72 h (Taselisib) [nM]	IC50, cell viability 72 h (Selumetinib) [nM]	IC50, cell viability 72 h (SRA737) [nM]	IC50, cell viability 72 h (MK-2206) [nM]	IC50, cell viability 72 h (Gemcitabine) [nM]	IC50, cell viability 72 h [1] [nM]	IC50, cell viability 72 h (Olaparib) [nM]	IC50, cell viability 72 h (5-Fluorouracil) [nM]	IC50, cell viability 72 h (AZD1775; max 3 µM) [nM]	IC50, cell viability 72 h (AZD0156; max 3 µM) [nM]
MV-4-11 (Acute Myeloid Leukemia)	> 10000	4430	503	70.3	3.97	1000	> 300	7.99	> 2000	> 1	20.6	2.99	> 1000	1.74	35.5	149	4160	17.1	33.1	24.2	> 10000	> 10000	1880	> 1000	994	5.9	> 10000	7860	3350	1290	7870	3.43	1350	> 10000	939	–	–
SK-LU-1 (Lung Adenocarcinoma)	> 10000	> 10000	–	> 1000	> 3000	> 10000	> 300	> 1000	> 2000	–	> 1000	145	–	> 1000	–	> 10000	> 10000	–	–	> 1000	> 10000	> 10000	> 10000	> 1000	> 10000	> 1000	> 10000	> 10000	> 10000	> 10000	> 10000	> 300	> 5000	> 10000	> 20000	1150	> 3000
DU-145 (Prostate Carcinoma)	> 10000	> 10000	–	> 1000	187	> 10000	> 300	> 1000	> 2000	> 1	> 1000	47.3	–	> 1000	> 10000	> 10000	> 10000	262	> 1000	> 1000	> 10000	> 10000	> 10000	> 1000	> 10000	> 1000	> 10000	> 10000	> 10000	> 10000	> 10000	> 300	> 5000	> 10000	> 20000	> 3000	> 3000
Ca-Ski (Cervical Carcinoma)	> 10000	> 10000	–	> 1000	23.8	> 10000	> 300	> 1000	558	> 1	> 1000	11.7	–	> 1000	8320	8850	> 10000	83.8	355	867	> 10000	> 10000	> 10000	> 1000	> 10000	> 1000	> 10000	2220	> 10000	> 10000	> 10000	222	> 5000	> 10000	> 20000	657	> 3000
EFO-21 (Ovarian Carcinoma)	> 10000	> 10000	–	> 1000	> 3000	> 10000	> 300	> 1000	> 2000	> 1	> 1000	> 300	–	> 1000	> 10000	> 10000	> 10000	101	> 1000	> 1000	> 10000	> 10000	> 10000	> 1000	> 10000	> 1000	> 10000	> 10000	> 10000	> 10000	> 10000	> 300	> 5000	> 10000	> 20000	> 3000	> 3000

Reference: the supplement of paper PMC11061612
